Assay results taken from patent publication US7902254B1, “Method for treating conditions mediated by PPAR using macelignan” (Newtree Co., Ltd., priority 2005, dated 2011).

What was measured:
human PPARα = target: T1, human PPARα (Homo sapiens, UniProt Q07869); experiment: PPARα activation, PPRE-controlled luciferase reporter in transfected COS-7 cells; assay type: cell-based; conditions: 25 μM, 24 hours, control 0.01% DMSO
T1 construct: expressed in transfected cells; host or cells: COS-7 monkey kidney cells (ATCC CRL-1651)
T1 sequence (Q07869 192-468 limits assumed): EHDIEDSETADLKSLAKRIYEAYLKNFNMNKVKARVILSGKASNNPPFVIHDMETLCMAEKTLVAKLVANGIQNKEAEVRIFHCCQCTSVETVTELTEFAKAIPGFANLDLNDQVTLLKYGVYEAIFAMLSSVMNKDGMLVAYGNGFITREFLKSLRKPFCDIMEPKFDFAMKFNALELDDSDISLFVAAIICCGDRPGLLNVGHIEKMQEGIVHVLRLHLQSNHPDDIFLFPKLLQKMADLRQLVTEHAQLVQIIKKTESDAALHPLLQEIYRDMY
Experimental: To investigate whether macelignan acts as a ligand of PPAR or not, it was tested according to known method (Cell, 68: 879-887, 1992; J. Biol. Chem., 272: 25252-25259, 1997) using a plasmid expressing PPAR and a vector having PPRE-controlled luciferase genes.
Activation of luciferase expression was measured by transfecting COS-7 monkey kidney cells (ATCC CRL-1651) with the PPARα plasmid and pFR-luciferase vector (Stratagene, USA), and then by treating the transfected cells with macelignan isolated from Example 1 for 24 hours. The PPARα plasmid was obtained by isolating polynucleotide encoding the amino acid sequence of amino acids […] (i.e. PPARα ligand-bound domain of the total amino acid sequence of human PPARα (Genbank Acession No. S74349)) with the primers of SEQ ID NO: 1 ([…]) and SEQ ID NO: 2 (TGGGGTACCTGGCTGAT) by RT-PCR. Then, the polynucleotide was cloned between the restriction enzyme sites of BamHI and KpnI of pFA vector (Stratagene, USA). Herein, mRNA used as the template in RT-PCR was obtained by separating the total RNA in cultured Hep G2 (ATCC HB-8065) human liver cells by using TRIZOL (Invitrogen, USA). RT-PCR was performed by synthesizing cDNA using reverse transcriptase at 42° C. for 60 minutes, and 30 cycles of 1 minute at 95° C., 30 seconds at 54° C. and 2 minutes at 72° C. using Taq polymerase. At this time, the test groups treated with different concentrations (1, 5, 10 and 25 μM) of macelignan according to the present invention were compared to the control treated with 0.01% DMSO, and to the groups treated with different concentrations (1, 5, 10 and 25 μM) of Wy-14643 (Sigma, USA), a compound known as a PPARα ligand.

[1] = system: obesity/diabetes mice (db/db mice); experiment: Effect upon hyperlipidemia and cardiovascular diseases in obesity/diabetes mouse model; assay type: in vivo; conditions: 10 mg/kg oral, 14 days
Experimental: To investigate effects of macelignan upon the treatment of hyperlipidemia and cardiovascular diseases, seven mice of 10 week-aged obesity/diabetes mice (db/db mice) were used per test group. To the test groups, macelignan suspended in 0.25% carboxymethyl cellulose was orally administered in an administration dose of 5 mg/kg (body weight), 10 mg/kg (body weight) and 25 mg/kg (body weight), once per day at a predetermined time, for 14 days. As a control, 0.25% carboxymethyl cellulose was orally administered alone to normal mice in the same dose as administered to the test group. As another control, 0.25% carboxymethyl cellulose was orally administered alone to obesity/diabetes mice in the same dose as administered to the test group. As still another control, 10 mg/kg (body weight) of troglitazone was orally administered. Fourteen days after the administration, triglyceride concentration in blood (triglyceride measuring kit, Wako, Japan), free fatty acid concentration in blood (free fatty acid measuring kit, Wako, Japan), total cholesterol content in blood (ASAN T-CHO-Lq Reagents, Asan Pharmaceutical Co. Ltd., Korea), HDL-cholesterol content in blood (ASAN HDL-Cholesterol, Asan Pharmaceutical Co. Ltd., Korea), IL-6 content in blood (IL-6 Quantikine ELISA, R&D systems, USA) and TNF-α content in blood were measured for the test groups and the controls.

[2] = system: obesity/diabetes mice (db/db mice); experiment: Anti-diabetes effect in obesity/diabetes mouse model; assay type: in vivo; conditions: 10 mg/kg oral; for OGTT blood sugar: 12th day
From the text: A mouse (db/db mouse; The Jackson Laboratory, USA) used in the present invention as an obesity/diabetes model is deficient in leptin genes and cannot control its appetite, and thus takes an excessive amount of food continuously. […] Thus, it can be a typical model of obesity and metabolic diseases. Additionally, it has a higher blood sugar level and can be a typical model of non-insulin-dependent diabetes mellitus. To investigate the effect of preventing and treating diabetes of macelignan, seven mice of 10 week-aged obesity/diabetes mice (db/db mice) were used per test group. To the test groups, macelignan suspended in 0.25% carboxymethyl cellulose was orally administered with the dose of 5 mg/kg (body weight), 10 mg/kg (body weight) and 25 mg/kg (body weight), once per day at a predetermined time, for 14 days. As a control, 0.25% carboxymethyl cellulose was orally administered alone to normal mice in the same dose as administered to the test group. As another control, 0.25% carboxymethyl cellulose was orally administered alone to obesity/diabetes mice in the same dose as administered to the test group. As still another control, 10 mg/kg (body weight) of troglitazone was orally administered. Blood sugar levels of the obesity/diabetes mice were determined from six days before the administration, once per three days. On the 12th day after the oral administration, the test group and the controls were subjected to the Oral Glucose Tolerance Test (OGTT). For this test, obesity/diabetes mice in the test group and the controls were fasted for at least 18 hours, glucose was orally administered to the mice in a dose of 3 g/kg (body weight), and then variations in the blood sugar were measured at 0 minutes, 30 minutes, 60 minutes and 120 minutes after the glucose administration. Additionally, on the 14th day of the oral administration, the final blood sugar level, insulin content in blood (mouse insulin ELISA Kit, Linco Research, o. EZRMI-BK, USA) and adiponectin content in blood (Adiponectin Quantikine ELISA Kit, R&D systems, No. MRP300, USA) were analyzed.

Row | SMILES | luciferase activity higher than the control (PPARα) (human PPARα) | Free fatty acid in blood [1] [mEq/l] | HDL-cholesterol in blood [1] [mg/dL] | IL-6 in blood [1] [pg/mL] | TNF-α in blood [1] [pg/mL] | Total cholesterol in blood [1] [mg/dL] | Triglyceride in blood [1] [mg/dL] | OGTT blood sugar ([2]; 0 min. after glucose 3 g/kg) [mg/dL] | Adiponectin concentration in blood ([2]; 14th day, db/db mice) [ng/mL] | Insulin concentration in blood ([2]; 14th day, db/db mice) [ng/mL] | OGTT blood sugar ([2]; 30 mins. after glucose 3 g/kg) [mg/dL] | OGTT blood sugar ([2]; 60 mins. after glucose 3 g/kg) [mg/dL] | OGTT blood sugar ([2]; 120 mins. after glucose 3 g/kg) [mg/dL]
1 | Cc1cccc(Nc2cc(Cl)nc(SCC(=O)O)n2)c1C [Wy-14643, reference compound] | about 16 times | – | – | – | – | – | – | – | – | – | – | – | –
2 | Cc1c(C)c2c(c(C)c1O)CCC(C)(COc1ccc(CC3SC(=O)NC3=O)cc1)O2 (stereo not shown) [troglitazone, reference compound] | – | 1.22 ± 0.27 | 43.9 ± 6.34 | 10.24 ± 3.60 | 30.49 ± 13.18 | 134 ± 34.9 | 112.57 ± 57.47 | 303.43 ± 37.83 | 6682.33 ± 250.05 | 18.57 ± 5.88 | 610.57 ± 76.21 | 523.70 ± 17.10 | 456.41 ± 54.69
